What was measured:
[1] = system: nude mice; test: Toxicity in animal models (blood liver levels, liver/kidney tissue staining); type: in vivo; conditions: 200 μL intravenously, male nude mice, two days later
Excerpt: Two days later, blood and liver/kidney tissues were collected and evaluated for toxicity.

[2] = system: HT-29 cells (human colon cancer) solid tumors; test: Cancer cell accumulation in cancer disease model via fluorescence imaging; type: in vivo; conditions: HT-29 tumor on left thigh of nude mice, 200 μL intravenously
Description: The model with a cancer disease was prepared by subcutaneous injection of 1×10^7 HT-29 cells (human colon cancer, Korean Cell Line Bank) on the left thigh of 5-week-old male nude mice (Orientbio Inc., Korea). After 2 weeks of cancer cell transplantation, solid tumors were confirmed to be formed, and then subsequent experiments were performed.

[3] = Photothermal efficiency (solution temperature under laser irradiation); type: physicochemical; conditions: laser 808 nm, 1 W; followed by temperature decrease due to photodegradation
Excerpt: Such an increase of photothermal efficiency of the ICG-Fe NPs is thought to be due to fluorescence of ICG, which competitively acts on the photothermal reaction and is present within the nanoparticles in a fluorescence-quenched state.

With `CC1(C)C(/C=C/C=C/C=C/C=C2\N(CCCCS(=O)(=O)O)c3ccc4ccccc4c3C2(C)C)=[N+](CCCCS(=O)(=O)[O-])c2ccc3ccccc3c21` [ICG, indocyanine green] the “AST/ALT values (blood liver levels)” value [1] was “normal levels”, the immunostained liver/kidney tissues [1] was “no abnormalities were found” and the “fluorescence at the cancer site (accumulation)” value [2] was “did not show fluorescence at the cancer site”. For the same compound, the “temperature increase at the beginning of laser irradiation” value [3] was “about 45 °C”.
